The text below walks through data of patent publication US20100285959A1, “HERBICIDAL MIXTURES” (priority 2006, published 2010).

Molecules are shown by their SMILES.

The subject of data set [1] is velvetleaf (ABUTH). The data set is described as follows: Test 25 field trial, postemergence, growth as percent of control. Type of data set: in vivo, Abutilon theophrasti. An excerpt:
(§1) Corn seeds (hybrid ‘Pioneer 31G96 RR’) were planted in mid spring season, 3.8 cm deep in a clay loam soil having 2% organic matter and a pH of 6.6. Plots were 6.1 m long by 3.0 m wide with rows spaced 76 cm apart. Seeds were spaced 15 cm apart within the rows. The field was managed using conventional tillage practices. […] Giant ragweed and Pennsylvania smartweed could only be evaluated 14 days after application. […] Results are the means of the three replicates. This growth inhibition data was converted to results in the form of “plant growth as a percent of control plant growth” using the calculation “100 minus growth inhibition”.
(§2) When this form of Colby's Equation is used, if the observed effects on weeds are less than the expected values, the mixture is synergistic.

For data set [2], the system named is velvetleaf (ABUTH). As to the kind of experiment: Test 16 greenhouse, post- and preemergence. The settings on record: 15 DAA.
A further data set relates to common chickweed (STEME). The data set is described as follows: Test 24 growth chamber, postemergence. The data set is classed as in vivo, Stellaria media. The settings on record: 17 DAA. The procedure:
Plants were treated postemergence at the 2-4 leaf growth stage, and each treatment was replicated three times. […] Plants were watered as needed. […] Results for barley and wheat are the means across varieties of the three replicates, and results for the weeds are the means of the three replicates.

For a further data set, the system named is giant ragweed (AMBTR). The data set is described as follows: Test 25 field trial, postemergence, growth as percent of control. Type of data set: in vivo, Ambrosia trifida. The settings on record: 14 DAA.
From the text: as §1, §2

A further data set deals with mixed hardwoods (MXDSP). As to the kind of experiment: Test 13 field trial, postemergence, brush weeds. The following applies: 56 DAA; g a.i./ha: Cpd 2 250; Fosamine-ammonium 6700. The data set is classed as in vivo, Nyssa sylvatica, Acer rubrum, Liquidambar styraciflua. An excerpt:
Plots were established in non-crop land and were 6.1 m long by 3.0 m wide. […] Treatments were applied postemergence to the brush weeds using a backpack sprayer delivering a spray volume of 468 L/ha using a pressure of 241 kPa. […] All treatments also included a surfactant. […] Results are the means of the three replicates.

In a further data set the test system is corn (ZEAMD). The data set is described as follows: Test 14 field trial, preemergence, growth as percent of control. Type of data set: in vivo, Zea mays ssp. indentata. The following applies: 1870 g a.i./ha. An excerpt: Corn seeds (hybrid ‘Pioneer 31G96 RR’) were planted in mid spring season, 3.8 cm deep in a clay loam soil having 2% organic matter and a pH of 6.6. Plots were 6.1 m long by 3.0 m wide with rows spaced 76 cm apart. Seeds were spaced 15 cm apart within the rows. The field was managed using conventional tillage practices. […] Yellow nutsedge was only evaluated 19 and 28 days after application, and ivyleaf morningglory could only be evaluated 28 days after application. […] Results are the means of the three replicates. This growth inhibition data was converted to results in the form of “plant growth as a percent of control plant growth” using the calculation “100 minus growth inhibition”. […] For “growth as a percent of control” data, Colby's Equation calculates the expected additive effect of herbicidal mixtures having two active ingredients as follows:
Ga+b=GaGb/100 • wherein Ga+b is the growth as a percent of control of plants treated with the mixture expected from additive contribution of the individual components, • Ga is the observed growth as a percent of control of plants treated with the first active ingredient at the same use rate as in the mixture, and • Gb is the observed growth as a percent of control of plants treated with the second active ingredient at the same use rate as in the mixture. For mixtures having three active ingredients, Colby's Equation to calculate the expected additive effect of herbicidal mixtures is as follows:
Ga+b+c=GaGbGc/10,000 • wherein Ga and Gb are as defined above and • Ga+b+c is the growth as a percent of control of plants treated with the mixture expected from additive contribution of the individual components, and • Gc is the observed growth as a percent of control of plants treated with the third active ingredient at the same use rate as in the mixture. When these two forms of Colby's Equation are used, if the observed effects on weeds are less than the expected values, the mixture is synergistic.

The test system of a further data set is rice (ORYSA). The data set is described as follows: Test 32 greenhouse, simulated flooded rice culture. The data set is classed as in vivo, Oryza sativa. The settings on record: postemergence to flood, 21 DAA. The procedure:
A greenhouse trial was conducted to evaluate the effects of Compound 1 and isoxadifen-ethyl at different ratios in simulated flooded rice culture. Plastic pots (11-cm diameter) were partially filled with non-sterilized Tama silt loam soil containing a 15:57:28 ratio of sand, silt and clay and 2.9% organic matter. Seeds of Heteranthera limosa (ducksalad; HETLI), Cyperus difformis (smallflower umbrella sedge; CYPDI), one stand of Echinochloa crus-galli (barnyardgrass; ECHCG), and one stand of four rice seedlings (Oryza sativa cv. ‘M202’; ORYSA) were planted into a single 11-cm diameter pot for each rate and mixture of rates. To obtain this planting, C. difformis and H. limosa seeds were planted separately on the surface soil layer at particular locations within each pot. Water levels were brought to a puddled condition above the soil surface directly after planting. E. crus-galli and rice seeds were planted in cavity trays in the silt loam soil and transplanted at the 1.5 and 2.0 leaf stage, respectively. E. crus-galli and rice plants were transplanted to about 2-cm depth by transferring plugs from the cavity trays. Plantings were sequential so that these plant species all reached the 2.0- to 2.5-leaf stage in the 11-cm diameter pot at time of treatment. Plantings were established and maintained in a greenhouse with day and night temperatures of about 29.5 and 26.7° C. respectively; supplemental balanced lighting was provided to maintain a 16-hour photoperiod. Pots were fertilized periodically with a 200 ppm solution of commercial Scotts Peters® Professional® General Purpose 20-20-20 Water Soluble Fertilizer, amended to 10 ppm with a commercial iron-chelate micronutrient fertilizer. The solution was supplied at time of watering via a liquid fertilizer injector.
At treatment time, test pots were flooded to 3 cm above the soil surface and maintained at that water depth for the duration of the test. Chemical treatments were formulated in acetone and applied directly to the paddy water (i.e., postemergence to flood). Make-up volumes of acetone were added to ensure that all pots were treated with a consistent volume. Test pots were maintained in the greenhouse. A randomized complete block design was employed. Five replicates of each treatment, alone and in mixture, were used. Each species was visually evaluated for treatment effects by comparing those treated to untreated controls and rated for plant response after 21 days.

With `COC(=O)c1nc(C2CC2)nc(N)c1Cl` [Compound 2, methyl 6-amino-5-chloro-2-cyclopropyl-4-pyrimidinecarboxylate], the “ABUTH Obs (percent of control)” value in the data set with velvetleaf (ABUTH) [1] (Cpd 2 15 g a.i./ha, 14 DAA) is on record as 70%; in the data set with velvetleaf (ABUTH) [1] (Cpd 2 15 g a.i./ha, 28 DAA), 72%; in the data set on velvetleaf (ABUTH) [1] (Cpd 2 15 g a.i./ha, 56 DAA) it was 62%; with velvetleaf (ABUTH) [1] (Cpd 2 30 g a.i./ha, 14 DAA) it was 45%; with velvetleaf (ABUTH) [1] (Cpd 2 30 g a.i./ha, 28 DAA) it was 53%; in the data set with velvetleaf (ABUTH) [1] (Cpd 2 30 g a.i./ha, 56 DAA) it was 28%. For the same compound, the “ABUTH Obs (percent of control)” value with velvetleaf (ABUTH) [1] (Cpd 2 45 g a.i./ha, 14 DAA) is 37%; in the data set on velvetleaf (ABUTH) [1] (Cpd 2 45 g a.i./ha, 28 DAA), 40%; in the data set on velvetleaf (ABUTH) [1] (Cpd 2 45 g a.i./ha, 56 DAA) it was 20%. For the same compound, the “Obs response, scale 0 to 100” value in the data set on velvetleaf (ABUTH) [2] (Postemergence, 15 g a.i./ha) turned out to be 33; in the data set on velvetleaf (ABUTH) [2] (Postemergence, 30 g a.i./ha), 38; with velvetleaf (ABUTH) [2] (Postemergence, 45 g a.i./ha), 61; with velvetleaf (ABUTH) [2] (Preemergence, 15 g a.i./ha) it was 23; in the data set with velvetleaf (ABUTH) [2] (Preemergence, 30 g a.i./ha), 38; in the data set on velvetleaf (ABUTH) [2] (Preemergence, 45 g a.i./ha), 42. For the same compound, the “STEME Obs (scale 0 to 100)” value in the data set with common chickweed (STEME) (Cpd 2 4 g a.i./ha) was determined as 47; in the data set with common chickweed (STEME) (Cpd 2 8 g a.i./ha), 63; with common chickweed (STEME) (Cpd 2 16 g a.i./ha), 67. The figures for the “AMBTR Obs (percent of control)” value in the data set with giant ragweed (AMBTR) (Cpd 2 30 g a.i./ha) and in the data set on giant ragweed (AMBTR) (Cpd 2 45 g a.i./ha) were 5% and 0%, respectively. Moreover, in the data set with mixed hardwoods (MXDSP), the “MXDSP Obs” value is reported as 45.

Turning to `CCc1cccc(C)c1N(C(=O)CCl)[C@@H](C)COC` [S-Metolachlor, S-metolachlor, reference compound], the entries for the “Obs growth % of control” value with corn (ZEAMD) (19 DAA), with corn (ZEAMD) (28 DAA) and in the data set on corn (ZEAMD) (56 DAA) were 98%, 98% and 100%, respectively.

Consider `Nc1nc(C2CC2)nc(C(=O)O)c1Cl` [Compound 1, 6-amino-5-chloro-2-cyclopropyl-4-pyrimidinecarboxylic acid], for which the figures for the ORYSA Obs with rice (ORYSA) (Cpd 1 31.25 g a.i./ha), in the data set on rice (ORYSA) (Cpd 1 62.5 g a.i./ha) and in the data set on rice (ORYSA) (Cpd 1 125 g a.i./ha) were 9%, 15% and 27%, respectively.
